The values below come from patent US20240165092A1, “USE OF AN OREXIN 2 RECEPTOR AGONIST FOR POST OPERATION RECOVERY” (Takeda Pharmaceutical Limited Company, priority 2021, published 2024).

Holding throughout (type): in vivo, rat
Experiment [1] has as its system Male Sprague-Dawley rats. The experiment in a line: Time to recovery from isoflurane-induced anesthesia assessed by righting reflex. Conditions: for Duration of anesthesia (min) (Mean): isoflurane anesthesia 30 min, vehicle 6.15. As for the experimental part: Male Sprague-Dawley rats, 8 weeks-age, were purchased from Charles river Japan. To induce and maintain isoflurane anesthesia, rats were placed in a pre-filled anesthesia induction chamber isoflurane 4%. The induction of anesthesia was defined as the rat's inability to right itself into the prone position (loss of righting reflex: LORR) after it was placed in the supine position in a cage. After confirming LORR, rats were exposed to 3% isoflurane using a facemask and maintained for 30 min. Fifteen minutes after LORR, Compound (I) was administered subcutaneously (SC) to rats in a volume of 5 mL/kg of body weight (BW). As vehicle-treated control, 10.5% (w/v) Captisol® (CyDex Pharmaceuticals, KS, USA)/1.5 mM Na2HIPO4 in distilled water was administered to rats. Thirty minutes after confirming LORR, isoflurane inhalation was terminated and time to recovery from LORR was recorded as duration of anesthesia. Body temperature was maintained at 37.0-37.5° C. using a heating pad during and after anesthesia.

Experiment [2] deals with Male Sprague-Dawley rats. As to the kind of experiment: Time to recovery from propofol-induced anesthesia assessed by righting reflex. Particulars: for Duration of anesthesia (min) (Mean): propofol anesthesia 30 min, vehicle 12.8. The protocol: Male Sprague-Dawley rats, 8 weeks-age, were purchased from Charles river Japan. To induce and maintain propofol anesthesia, a bolus dose of propofol (10 mg/kg) was administered intravenously to rats. After confirming LORR, rats were gently placed in the supine position on a heating pad to maintain body temperature at 37.0-37.5° C. Subsequently, continuous administration of propofol at 60 mg/kg/hr was performed for 30 min. Fifteen minutes after LORR, Compound (I) was administered SC to rats in a volume of 5 mL/kg of BW. As vehicle-treated control, 10.5% (w/v) Captisol®/1.5 mM Na2HPO4 in distilled water was administered to rats. Thirty minutes after confirming LORR, propofol infusion was terminated and time to recovery from LORR was recorded as duration of anesthesia.

Experiment [3] has as its system Male Sprague-Dawley rats. As to the kind of experiment: Fentanyl (0.1 mg/kg)-induced sedation assessed by righting reflex. Particulars: for Duration of sedation (min) (Mean): fentanyl 0.1 mg/kg SC, vehicle 88.8. As for the experimental part: Male Sprague-Dawley rats, 8 weeks-age, were purchased from Charles river Japan. In this study, LORR was used as an indicator of sedation. […] As vehicle-treated control, 10.5% (w/v) Captisol®/1.5 mM Na2HIPO4 in distilled water was administered. The time to recovery from LORR was recorded as duration of sedation.

Experiment [4] has as its system Male Sprague-Dawley rats. As to the kind of experiment: Fentanyl (0.1 mg/kg)-induced respiratory depression assessed by whole body plethysmography (WBP).
The test system of experiment [5] is Male Sprague-Dawley rats. As to the kind of experiment: Fentanyl-induced analgesic effects in formalin test. Conditions: for Phase I (No. of flinching) / Phase II (No. of flinching): formalin test; for Phase I (No. of flinching): 1 to 11 min; for Phase II (No. of flinching): 16 to 61 min.
For experiment [6], the system named is Male Sprague-Dawley rats. The experiment in a line: Fentanyl-induced analgesic effects in pain model of postoperative skin incision.
Setting [7] is: Compound (I) 1.0 mg/kg SC 15 min after LORR.
The mark [8] stands for this setting: Compound (I) 10 mg/kg SC 15 min before fentanyl 0.1 mg/kg SC, 0 to 30 min after fentanyl.
Where [9] appears, read: Compound (I) 3.0 mg/kg + fentanyl 0.045 mg/kg.
Where [10] appears, read: Compound (I) 10 mg/kg + fentanyl 0.045 mg/kg.

In the case of `COC(=O)N1CCCC(NS(C)(=O)=O)C1COC1CCC(c2ccccc2)CC1` (stereo not drawn) [Compound (I), methyl 3-((methylsulfonyl)amino)-2-(((4-phenylcyclohexyl)oxy)methyl)piperidine-1-carboxylate], the “Duration of anesthesia (min) (Mean)” value in experiment [1] (Compound (I) 0.3 mg/kg SC 15 min after LORR) was 3.92 min; in experiment [1] (setting [7]), 3.06 min; in experiment [2] (setting [7]) it was 11.7 min; in experiment [2] (Compound (I) 3.0 mg/kg SC 15 min after LORR) it was 6.70 min; in experiment [2] (Compound (I) 10 mg/kg SC 15 min after LORR), 6.00 min. In addition, the “time to recovery from isoflurane-induced anesthesia assessed by righting reflex” value in experiment [1] (result in words) is listed as “reduced time to recovery”. Moreover, the “time to recovery from propofol-induced anesthesia assessed by righting reflex” value in experiment [2] (result in words) is “reduced time to recovery”. For the same compound, the “Duration of sedation (min) (Mean)” value in experiment [3] (Compound (I) 1.0 mg/kg SC 10 min after fentanyl) is 81.3 min; in experiment [3] (Compound (I) 3.0 mg/kg SC 10 min after fentanyl), 67.0 min; in experiment [3] (Compound (I) 10 mg/kg SC 10 min after fentanyl), 42.9 min. Also, the “duration of fentanyl-induced sedation assessed by righting reflex” value in experiment [3] (result in words) is recorded as “reduced duration of fentanyl-induced sedation”. Also, the “MV (mL/min) (Mean)” value in experiment [4] (setting [8]) was 206 mL/min. Further, in experiment [4] (setting [8]), the “RR (breaths/min) (Mean)” value is listed as 144 breaths/min. In addition, in experiment [4] (setting [8]), the “TV (mL/stroke) (Mean)” value is 1.61 mL/stroke. The fentanyl-induced respiratory depression result in experiment [4] (result in words) was “suppressed fentanyl-induced respiratory depression”. The “RR, TV and MV compared to that of vehicle group” value in experiment [4] (with fentanyl 0.1 mg/kg, result in words) is “increased RR, TV and MV”. Further, the “effect on the analgesic effect of fentanyl” value in experiment [5] (formalin pain model, fentanyl 0.045 mg/kg, result in words) is recorded as “did not counteract the analgesic effect of fentanyl”; in experiment [6] (postoperative skin incision model, fentanyl 0.03 mg/kg, result in words), “did not counteract the analgesic effect of fentanyl”. For the same compound, the “Phase I (No. of flinching)” value in experiment [5] (setting [9]) is given as 5; in experiment [5] (setting [10]), 4. The figures for the “Phase II (No. of flinching)” value in experiment [5] (setting [9]) and in experiment [5] (setting [10]) were 52 and 45, respectively. In addition, the “pain threshold 1 hr after the skin incision” value is 28.5 g in experiment [6] (Compound (I) 3.0 mg/kg SC 15 min before incision + fentanyl 0.03 mg/kg SC) and 32.2 g in experiment [6] (Compound (I) 10 mg/kg SC 15 min before incision + fentanyl 0.03 mg/kg SC).
